Assay results: patent publication US20180188224A1, “METHOD FOR CONSTRUCTING A SENSORY SPACE” (CENTRE SCIENTIFIQUE ET TECHNIQUE DU BATIMENT (CSTB), priority 2015, published 2018)
Where “and” joins values, the source holds several entries; their conditions need not be identical. Equal values may be shown once.

Tests used:
[1] = tested on: four non-smoking volunteers (2 men and 2 women); experiment: Hedonic score, 11-point scale (0 very unpleasant to 10 very pleasant, 5 neutral); format: in vivo, human
Method: (§1) In this test, four non-smoking volunteers (2 men and 2 women) were chosen from 12 people for their performance in taste recognition. Their mean age was 32 years, ranging from 24 to 40 years. […] These four people were trained for several months to recognize and detect the four basic tastes, and also regarding the procedures of sensory and physiological analysis.
(§2) The four basic tastes (sweet, salty, sour and bitter) were used. The solutions were prepared with citric acid for the sour taste, caffeine for the bitter taste, sodium chloride for the salty taste and sucrose for the sweet taste (all purchased from Sigma Aldrich, France) in Evian water. Evian water was also used as control and blank. Each taste was prepared with the four concentrations mentioned in table 1.
(§3) The amount of solution to be tested was standardized at 10 ml. In order to impregnate the whole of the oral cavity, the subjects kept the solution in their mouth for 5 s before swallowing it.
(§4) The sessions were individual and the subjects were asked not to eat or drink anything for at least 1 h before the test. They arrived 15 min before the start of the session in order to acclimatize to the environmental conditions, in particular the temperature of the room (kept constant at 23° C.) and to be resting seated on a comfortable chair. The 16 solutions for testing and two additional samples of water containing solely Evian water, added to the references, were presented monadically following a test order determined from a “balanced incomplete block design”. During a session, 9 samples out of 18 were presented to minimize sensory fatigue. In addition, a sample of Evian was always tested as a “blank” sample in order to avoid the first-order effect (Lawless, H. T. & Heymann, H., 2010, Sensory evaluation of food: Principles and practices. Springer, New York) and was excluded from the analysis. A light signal was sent to give the instruction to test the sample. When the disturbance to the nervous system returned to its baseline level (after approximately 1 min), a second light signal indicated to the subjects that they should complete a questionnaire regarding the stimulus tested previously. The first part of the questionnaire was linked to the identification of the taste (i.e. determining the quality of the taste); the subjects had to choose between five labels: sweet, salty, sour, bitter or neutral. They then had to assign a taste intensity score on an 11-point scale (from 0 “not intense” (i.e. taste of Evian only) to 10 “very intense”) and finally to give a hedonic score on an 11-point scale (from 0 “very unpleasant” to 10 “very pleasant”, 5 being “neutral”).
(§5) This procedure was repeated for each of the 9 stimuli. A session lasted approximately 45 min including a debriefing at the end of the test to ensure understanding of the sense of the signal variations. The experiment was repeated 12 times per subject, meaning that the data are composed of 6 data sets per subject and per product and 12 data sets for the Evian product per subject. Thus, the database consists of 432 samples.
(§6) The effect of the taste on the hedonic and intensity scores was analyzed by an analysis of variance (ANOVA) including the product effect, the subject effect and the product-subject interaction. The subject effect was fixed because there were only 4 subjects and the results could only be applied to a particular schema. The differences were considered to be significant at a level of 0.05.

[2] = tested on: four non-smoking volunteers (2 men and 2 women); experiment: Taste identification questionnaire, trained panel (count of 6 repetitions per subject in which the stimulus was given each taste label; level of recognition %); format: in vivo, human
Method: as §1, §2, §3, §4, §5

[3] = cited from earlier work; for detection threshold: representative compound of a primary taste
[4] = tested on: subject 3; experiment: Skin blood microcirculation (SKBF) response to taste stimuli, PCA sensory space (ESRP); format: in vivo, human; conditions: concentration 3
Excerpt: A Periflux PF 5010 (Perimed AB, Sweden) system was chosen, which enables non-invasive monitoring of blood perfusion in the capillaries, arterioles and venules.
The unit of blood perfusion is arbitrary and corresponds to the product of the mean rate of displacement of the red blood cells by their concentration. The system Periflux PF 5010 has a 780 nm, 1 mm diameter laser beam without thermal effect. An optical fiber probe PR407 is used. The low-energy laser beam is transmitted by the probe to the tissue. A portion of the light reflects off the static structures and another portion of the light reflects off the moving blood cells. When the light reflects off a moving cell, the wavelength is modified, which corresponds to the Doppler effect. The scattered light collected by the optical fiber is used to calculate the perfusion value. The measurement is expressed in perfusion units (PU). Recording was carried out on the pad of the index finger of the non-dominant hand, due to the high level of vascularization of this zone. The perfusion signals were recorded by an 8-channel PowerLab PL35088/35 acquisition system; the data were collected at a frequency of 1 kHz and analyzed by the LabChart® software (AD instruments Ltd, United Kingdom).
. Then, the peak was analyzed manually by selecting the whole of the peak and analyzing it with the LabChart® software (FIG. 1).
Several shape parameters were extracted from the signal (i.e. amplitude, duration, gradient). […]
The SKBF responses were analyzed individually by one-way ANOVA (product effect), the subjects having their own “preferential channel” (Lacey, J. I., Bateman, D. E. & VanLEHN, R., 1953, Autonomic response specificity: An experimental study. Psychosomatic Medicine, 15, 8-21). […]

[5] = tested on: four non-smoking volunteers (2 men and 2 women); experiment: Taste intensity score, 11-point scale (0 not intense to 10 very intense); format: in vivo, human; conditions: concentration 4; averaged over 4 subjects, 6 repetitions each
Method: as §1, §2, §3, §4, §5, §6

Cn1c(=O)c2c(ncn2C)n(C)c1=O [Caffeine, caffeine]
hedonic score ([1]; concentration 3): 3.5±1.8
hedonic score ([1]; concentration 4 (highest)): 3.5±2.3
Individual recognition score: Bitter ([2]; human, in vivo): 6 (9×) and 4 (2×) and 5 (4×) and 3
Individual recognition score: Neutral ([2]; human, in vivo): 0 (11×) and 1 (3×) and 3 and 2
Individual recognition score: Salty ([2]; human, in vivo): 0
Individual recognition score: Sour ([2]; human, in vivo): 0 (14×) and 1 (2×)
Individual recognition score: Sweet ([2]; human, in vivo): 0 (15×) and 1
Level of Recognition %: Bitter ([2]; human, in vivo): 83% and 84%
Level of Recognition %: Salty ([2]; human, in vivo): 0%
Level of Recognition %: Sour ([2]; human, in vivo): 0% and 4%
Level of Recognition %: Sweet ([2]; human, in vivo): 0% and 4%
detection threshold [3]: 0.05 to 0.35 g/L
SKBF disturbance (signal width, area of the peak; ANOVA) [4]: significantly stronger disturbance than the others

OC[C@H]1O[C@@](CO)(O[C@H]2O[C@H](CO)[C@@H](O)[C@H](O)[C@H]2O)[C@@H](O)[C@@H]1O [Sucrose, sucrose]
hedonic score ([1]; concentration 4 (highest)): 7.0±2.6
Individual recognition score: Bitter ([2]; Subject 1, dilution 1): 0
Individual recognition score: Neutral ([2]; Subject 1, dilution 1): 0
Individual recognition score: Salty ([2]; Subject 1, dilution 1): 0
Individual recognition score: Sour ([2]; Subject 1, dilution 1): 0
Individual recognition score: Sweet ([2]; Subject 1, dilution 1): 6
Individual recognition score: Bitter ([2]; Subject 1, dilution 2): 0
Individual recognition score: Neutral ([2]; Subject 1, dilution 2): 0
Individual recognition score: Salty ([2]; Subject 1, dilution 2): 0
Individual recognition score: Sour ([2]; Subject 1, dilution 2): 0
Individual recognition score: Sweet ([2]; Subject 1, dilution 2): 6
Individual recognition score: Bitter ([2]; Subject 1, dilution 3): 0
Individual recognition score: Neutral ([2]; Subject 1, dilution 3): 0
Individual recognition score: Salty ([2]; Subject 1, dilution 3): 0
Individual recognition score: Sour ([2]; Subject 1, dilution 3): 0
Individual recognition score: Sweet ([2]; Subject 1, dilution 3): 6
Individual recognition score: Bitter ([2]; Subject 1, dilution 4): 0
Individual recognition score: Neutral ([2]; Subject 1, dilution 4): 0
Individual recognition score: Salty ([2]; Subject 1, dilution 4): 0
Individual recognition score: Sour ([2]; Subject 1, dilution 4): 0
Individual recognition score: Sweet ([2]; Subject 1, dilution 4): 6
Individual recognition score: Bitter ([2]; Subject 2, dilution 1): 0
Individual recognition score: Neutral ([2]; Subject 2, dilution 1): 0
Individual recognition score: Salty ([2]; Subject 2, dilution 1): 0
Individual recognition score: Sour ([2]; Subject 2, dilution 1): 0
Individual recognition score: Sweet ([2]; Subject 2, dilution 1): 6
Individual recognition score: Bitter ([2]; Subject 2, dilution 2): 0
Individual recognition score: Neutral ([2]; Subject 2, dilution 2): 0
Individual recognition score: Salty ([2]; Subject 2, dilution 2): 0
Individual recognition score: Sour ([2]; Subject 2, dilution 2): 0
Individual recognition score: Sweet ([2]; Subject 2, dilution 2): 6
Individual recognition score: Bitter ([2]; Subject 2, dilution 3): 0
Individual recognition score: Neutral ([2]; Subject 2, dilution 3): 0
Individual recognition score: Salty ([2]; Subject 2, dilution 3): 0
Individual recognition score: Sour ([2]; Subject 2, dilution 3): 0
Individual recognition score: Sweet ([2]; Subject 2, dilution 3): 6
Individual recognition score: Bitter ([2]; Subject 2, dilution 4): 0
Individual recognition score: Neutral ([2]; Subject 2, dilution 4): 0
Individual recognition score: Salty ([2]; Subject 2, dilution 4): 0
Individual recognition score: Sour ([2]; Subject 2, dilution 4): 0
Individual recognition score: Sweet ([2]; Subject 2, dilution 4): 6
Individual recognition score: Bitter ([2]; Subject 3, dilution 1): 0
Individual recognition score: Neutral ([2]; Subject 3, dilution 1): 3
Individual recognition score: Salty ([2]; Subject 3, dilution 1): 0
Individual recognition score: Sour ([2]; Subject 3, dilution 1): 0
Individual recognition score: Sweet ([2]; Subject 3, dilution 1): 3
Individual recognition score: Bitter ([2]; Subject 3, dilution 2): 0
Individual recognition score: Neutral ([2]; Subject 3, dilution 2): 0
Individual recognition score: Salty ([2]; Subject 3, dilution 2): 0
Individual recognition score: Sour ([2]; Subject 3, dilution 2): 0
Individual recognition score: Sweet ([2]; Subject 3, dilution 2): 6
Individual recognition score: Bitter ([2]; Subject 3, dilution 3): 0
Individual recognition score: Neutral ([2]; Subject 3, dilution 3): 0
Individual recognition score: Salty ([2]; Subject 3, dilution 3): 0
Individual recognition score: Sour ([2]; Subject 3, dilution 3): 0
Individual recognition score: Sweet ([2]; Subject 3, dilution 3): 6
Individual recognition score: Bitter ([2]; Subject 3, dilution 4): 0
Individual recognition score: Neutral ([2]; Subject 3, dilution 4): 0
Individual recognition score: Salty ([2]; Subject 3, dilution 4): 0
Individual recognition score: Sour ([2]; Subject 3, dilution 4): 0
Individual recognition score: Sweet ([2]; Subject 3, dilution 4): 6
Individual recognition score: Bitter ([2]; Subject 4, dilution 1): 0
Individual recognition score: Neutral ([2]; Subject 4, dilution 1): 0
Individual recognition score: Salty ([2]; Subject 4, dilution 1): 0
Individual recognition score: Sour ([2]; Subject 4, dilution 1): 0
Individual recognition score: Sweet ([2]; Subject 4, dilution 1): 6
Individual recognition score: Bitter ([2]; Subject 4, dilution 2): 0
Individual recognition score: Neutral ([2]; Subject 4, dilution 2): 0
Individual recognition score: Salty ([2]; Subject 4, dilution 2): 0
Individual recognition score: Sour ([2]; Subject 4, dilution 2): 0
Individual recognition score: Sweet ([2]; Subject 4, dilution 2): 6
Individual recognition score: Bitter ([2]; Subject 4, dilution 3): 0
Individual recognition score: Neutral ([2]; Subject 4, dilution 3): 0
Individual recognition score: Salty ([2]; Subject 4, dilution 3): 0
Individual recognition score: Sour ([2]; Subject 4, dilution 3): 0
Individual recognition score: Sweet ([2]; Subject 4, dilution 3): 6
Individual recognition score: Bitter ([2]; Subject 4, dilution 4): 0
Individual recognition score: Neutral ([2]; Subject 4, dilution 4): 0
Individual recognition score: Salty ([2]; Subject 4, dilution 4): 0
Individual recognition score: Sour ([2]; Subject 4, dilution 4): 0
Individual recognition score: Sweet ([2]; Subject 4, dilution 4): 6
Level of Recognition %: Bitter ([2]; four subjects, dilution 1): 0%
Level of Recognition %: Neutral ([2]; four subjects, dilution 1): 12%
Level of Recognition %: Salty ([2]; four subjects, dilution 1): 0%
Level of Recognition %: Sour ([2]; four subjects, dilution 1): 0%
Level of Recognition %: Sweet ([2]; four subjects, dilution 1): 88%
Level of Recognition %: Bitter ([2]; four subjects, dilution 2): 0%
Level of Recognition %: Neutral ([2]; four subjects, dilution 2): 0%
Level of Recognition %: Salty ([2]; four subjects, dilution 2): 0%
Level of Recognition %: Sour ([2]; four subjects, dilution 2): 0%
Level of Recognition %: Sweet ([2]; four subjects, dilution 2): 100%
Level of Recognition %: Bitter ([2]; four subjects, dilution 3): 0%
Level of Recognition %: Neutral ([2]; four subjects, dilution 3): 0%
Level of Recognition %: Salty ([2]; four subjects, dilution 3): 0%
Level of Recognition %: Sour ([2]; four subjects, dilution 3): 0%
Level of Recognition %: Sweet ([2]; four subjects, dilution 3): 100%
Level of Recognition %: Bitter ([2]; four subjects, dilution 4): 0%
Level of Recognition %: Neutral ([2]; four subjects, dilution 4): 0%
Level of Recognition %: Salty ([2]; four subjects, dilution 4): 0%
Level of Recognition %: Sour ([2]; four subjects, dilution 4): 0%
Level of Recognition %: Sweet ([2]; four subjects, dilution 4): 100%
detection threshold concentration of the basic taste ([3]; literature (Purves 2005; Robinson 2005)): approximately 20 mmol·l^−1
detection threshold [3]: 6.846 g/L
intensity score [5]: 8.3±0.9
